Results taken from patent US12226386B2, “Compositions and methods for treating biofilms” (The Regents of the University of California, priority 2018, dated 2025).

Legend:
[1] = system: S. aureus (MRSA) biofilms; experiment: in vitro sustained inhibition biofilm assay, bacterial; type: cell-based, Staphylococcus aureus
Experimental: In vitro biofilm formation was tested using two assays, sustained inhibition and disruption. Both assays assess biofilm formed on polystyrene plates. The first, tests the effects of amino acid solution on a developing biofilm, while the latter tests the effects of the solution on a pre-formed mature biofilm, both compared to media without supplemented amino acids.
Other amino acids in the blood of animals could combat bacterial and fungal biofilm and therefore may be useful in treating these bacterial and fungal infections that would lie on the external surfaces of infected animals such as humans and could also be used to combat these pathogens on instruments and surfaces that need to be treated. Two types of biofilm assays were performed: a sustained inhibition assay and a disruption assay. The sustained inhibition assay assessed the compound's ability to prevent biofilm development throughout all stages of biofilm formation, while the disruption assay assessed the compound's ability to break up an existing mature biofilm.
For fungal biofilm assays, all solutions were prepared in RPMI 1640 medium. All bacterial biofilm solutions were prepared in Tryptic Soy Broth (TSB), supplemented with 1% glucose (henceforth referred to as TSB-G). All subsequent procedures were performed in a manner that maintained sterility. A solution of each amino acid to be tested was prepared in weight to volume concentrations ranging from 0.1-5.0%. Amino acids were also tested in combinations. Compound solutions were homogenized with gentle agitation in the dark (4° C., 24 hours) before use.
Bacterial strains were streaked on Blood Agar plates (5% sheep blood in Tryptic Soy Agar) and incubated at 37° C. for 24 hours. A single colony from each strain to be tested was inoculated in a TSB broth and grown for 12 hours, at 37° C. shaking at 225 rpm. For the bacterial biofilm inhibition assays, 1 μL of saturated overnight cell culture was added to either 80 μL of TSB-G, or TSB-G supplemented with the amino acid compound solution to be tested, in a 384-well plate. The cells were allowed to adhere to the plate for 60 minutes at 37° C. without shaking. The media was carefully aspirated and 80 μL of TSB-G, or TSB-G supplemented with the amino acid compound solution was added to the plate. The plate was further incubated for 24 hours at 37° C. without shaking. Media was carefully aspirated and the biofilm was measured by optical density at 600 nm. Eight or twelve replicates were performed for each tested condition and the reported values are normalized to the control (TSB-G media only). For the bacterial biofilm disruption assays, 80 μL of TSB-G was added to the plate, along with 1 μL of overnight cell culture. The cells were allowed to adhere to the plate for 60 minutes at 37° C. with no shaking. The media was carefully aspirated and 80 μL of TSB-G was added to the plate. The plate was further incubated for 24 hours at 37° C. with no shaking. Media was carefully aspirated from the mature biofilm and 80 μL of TSB-G, or TSB-G supplemented with the amino acid to be tested, was gently added to the plate. The plate was further incubated for 24 hours at 37° C. without shaking. Media was aspirated and the biofilm was measured by optical density at 600 nm. Twelve replicates were performed for each tested condition and the reported values are normalized to the control (TSB-G media only).
For inhibition assay, 1 μl of overnight cell culture was added to either 80 μl of TSB-G, or TSB-G supplemented with the amino acid to be tested, in a 384-well plate. The cells were allowed to adhere to the plate for 60 minutes at 37° C. with no shaking. The media was carefully aspirated and 80 μl of TSB-G, or TSB-G supplemented with amino acid was added to the plate. The plate was further incubated for 24 hours at 37° C. with no shaking. Media was carefully aspirated and the biofilm was measured by optical density at 600 nm. […]

[2] = system: fungal biofilms (C. albicans); experiment: biofilm assays (sustained inhibition and/or disruption), fungal; type: cell-based, Candida albicans; conditions: Tables 4 and 5
Experimental: Other amino acids in the blood of animals could combat bacterial and fungal biofilm and therefore may be useful in treating these bacterial and fungal infections that would lie on the external surfaces of infected animals such as humans and could also be used to combat these pathogens on instruments and surfaces that need to be treated. Two types of biofilm assays were performed: a sustained inhibition assay and a disruption assay. The sustained inhibition assay assessed the compound's ability to prevent biofilm development throughout all stages of biofilm formation, while the disruption assay assessed the compound's ability to break up an existing mature biofilm. For fungal biofilm assays, all solutions were prepared in RPMI 1640 medium. All bacterial biofilm solutions were prepared in Tryptic Soy Broth (TSB), supplemented with 1% glucose (henceforth referred to as TSB-G). All subsequent procedures were performed in a manner that maintained sterility. […] Amino acids were also tested in combinations. Compound solutions were homogenized with gentle agitation in the dark (4° C., 24 hours) before use. Fungal strains were streaked on Yeast Peptone Dextrose (YPD) agar plates and incubated at 30° C. for 48 hours. A single colony from each strain to be tested was inoculated into YPD broth and grown for 12 hours, at 30° C., shaking at 225 rpm. For the fungal biofilm inhibition assay, 1 μl of saturated overnight cell culture was added to either 80 μL of RPMI-1640 or RPMI-1640 supplemented with the amino acid compound solution to be tested, in a 384-well plate. The cells were allowed to adhere to the plate for 90 minutes at 37° C. shaking at 350 rpm. Loosely bound cells were washed once with phosphate buffered saline (PBS) and 80 μl of RPMI-1640, or RPMI-1640 supplemented with the amino acid compound solution was added to the plate. The plate was further incubated for 24 hours at 37° C. shaking at 350 rpm. Media was carefully aspirated and the biofilm was measured by optical density at 600 nm. Twelve replicates were performed for each tested condition and the reported values are normalized to the control (RPMI-1640 media only). For the fungal biofilm disruption assays, 80 μL of RPMI-1640 was added to the plate, along with 1 μL of overnight cell culture. The cells were allowed to adhere to the plate for 90 minutes at 37° C. shaking at 350 rpm. Loosely bound cells were washed once with PBS and 80 μL of RPMI-1640 was added to the plate. The plate was further incubated for 24 hours at 37° C. shaking at 350 rpm. Media was carefully aspirated from the mature biofilm and 80 μL of RPMI-1640, or RPMI-1640 supplemented with the amino acid compound solution to be tested, was gently added to the plate. The plate was further incubated for 24 hours at 37° C. shaking at 350 rpm. Media was carefully aspirated and the biofilm was measured by optical density at 600 nm. Twelve replicates were performed for each tested condition and the reported values are normalized to the control (RPMI-1640 media only).

[3] = sustained inhibition, S. aureus, 1% amino acid, p<0.001

Row | Compound | Reduce B Biofilm [1, 3] | effect on C. albicans biofilms in inhibition and disruption assays [2] | Reduce B Biofilm ([1]; MRSA)
1 | N[C@@H](CC(=O)O)C(=O)O [Aspartic Acid, L-aspartic acid] | ●● (two dots [i.e. ●●] signifies major effect (greater than about 30% change)) | both inhibited and disrupted | –
2 | N[C@@H](CS)C(=O)O [Cysteine, L-cysteine] | ●● (two dots [i.e. ●●] signifies major effect (greater than about 30% change)) | both inhibited and disrupted | –
3 | N[C@@H](CCC(=O)O)C(=O)O [Glutamic Acid, L-glutamic acid] | – | both inhibited and disrupted | ●● (two dots [i.e. ●●] signifies major effect (greater than about 30% change))
